Format in all cases: cell-based
For experiment [1], the system named is HCT15 (colon adenocarcinoma). In words: In vitro cytotoxicity, sulforhodamine B (SRB) method, HCT15. To be noted: Homo sapiens; HCT-15, SRB method; read-out: cytotoxicity (ED50) HCT-15. The method, then: (§1) The chalcone derivatives of the present invention were evaluated for in vitro cytotoxicity against human carcinoma cell lines using a sulforhodamine B (SRB) method, which was developed in 1989 by the National Cancer Institute (NCI), USA.
(§2) HCT15 (colon adenocarcinoma; ATCC CCL-225), PC-3 (prostate adenocarcinoma; ATCC CRL-1435), and A-549 (lung carcinoma; ATCC CCL-185) cell lines were used. All of these carcinoma cells were sub-cultured at the Korean Research Institute of Bioscience and Biotechnology (KRIBB), Korea.
(§3) The human carcinoma cell lines were cultured in 10% FCS-containing RPMI 1640 medium (Gibco Cat. No. 31800) in an incubator at 37° C. under 5% CO2, and sub-cultured twice per week.
(§4) Cells were detached from the attached surface using 0.25% Trypsin (Sigma) and 3 mM CDTA (1,2-cyclohexane diamine tetraacetic acid, Sigma) in phosphate buffered saline (PBS, Sigma).
(§5) Compounds to be tested (the chalcone derivatives set forth in Table 1) were dissolved in a small amount of dimethylsulfoxide (DMSO, Sigma), and diluted in culture medium to a desired concentration. The final concentration of DMSO was less than 0.5%. The diluted compounds (final concentration: 30, 10, 3, 1 and 0.3 μg/ml) were sterilized through a 0.22-μm microfilter (Millipore). The cytotoxicity of the compounds to human carcinoma cell lines was assessed using a typical SRB method.
Background: Sulforhodamine B stains cellular protein and so reports cell mass.

Experiment [2] has as its system PC-3 (prostate adenocarcinoma). The experiment is described as follows: In vitro cytotoxicity, sulforhodamine B (SRB) method, PC-3. To be noted: Homo sapiens; PC-3, SRB method; read-out: cytotoxicity (ED50) PC-3. The method, then: as §1, §2, §3, §4, §5
Another experiment concerns A-549 (lung carcinoma). In words: In vitro cytotoxicity, sulforhodamine B (SRB) method, A-549. To be noted: Homo sapiens, A549; A-549, SRB method; read-out: cytotoxicity (ED50) A-549. The method, then:
as §1, §2, §3, §4, §5

≈ marks a conversion by molar mass, not a printed value.

On to `Cc1ccc(S(=O)(=O)Nc2ccc(C(=O)/C=C/c3ccccc3O)cc2)cc1` [Compound 3, 4′-(p-toluenesulfonylamino)-2-hydroxychalcone], for which the results for the IC50 (in experiment [1]; in experiment [2]; with A-549 (lung carcinoma)) were 40 µg/mL (≈ 102 µM), 37 µg/mL (≈ 94 µM) and 35 µg/mL (≈ 89 µM), respectively.
Regarding `O=C(/C=C/c1ccc(O)cc1)c1cccc(NS(=O)(=O)c2cccc(O)c2)c1` [Compound 18, 3′-(m-hydroxybenzenesulfonylamino)-4-hydroxychalcone], the results for the IC50 (in experiment [1]; in experiment [2]; with A-549 (lung carcinoma)) were 33 µg/mL (≈ 83.5 µM), 39 µg/mL (≈ 98.6 µM) and 31 µg/mL (≈ 78.4 µM), respectively.
Consider `O=C(/C=C/c1ccc(O)c(O)c1)c1ccc(OS(=O)(=O)c2cccc(O)c2)cc1` [Compound 94, 4′-(m-hydroxybenzenesulfonate)-3,4-dihydroxychalcone], for which the IC50 in experiment [1] was 7 µg/mL (≈ 17 µM); in experiment [2] it was 16 µg/mL (≈ 38.8 µM); in the experiment on A-549 (lung carcinoma), 11 µg/mL (≈ 26.7 µM).
The corresponding values for `O=C(/C=C/c1ccc(O)cc1O)c1ccc(OS(=O)(=O)c2ccc(O)cc2)cc1` [Compound 92, 4′-(p-hydroxybenzenesulfonate)-2,4-dihydroxychalcone] are 8 µg/mL (≈ 19.4 µM), 7 µg/mL (≈ 17 µM) and 9 µg/mL (≈ 21.8 µM).
The corresponding values for `O=C(/C=C/c1ccccc1O)c1ccccc1NS(=O)(=O)c1cccc(O)c1` [Compound 23, 2′-(m-hydroxybenzenesulfonylamino)-2-hydroxychalcone] are 35 µg/mL (≈ 88.5 µM), 37 µg/mL (≈ 93.6 µM) and 31 µg/mL (≈ 78.4 µM).
The corresponding values for `O=C(/C=C/c1cc(O)ccc1O)c1ccccc1NS(=O)(=O)c1ccc(O)cc1` [Compound 59, 2′-(p-hydroxybenzenesulfonylamino)-2,5-dihydroxychalcone] are 9 µg/mL (≈ 21.9 µM), 20 µg/mL (≈ 48.6 µM) and 13 µg/mL (≈ 31.6 µM).
As for `O=C(/C=C/c1cccc(O)c1O)c1ccc(NS(=O)(=O)c2cccc(O)c2)cc1` [Compound 61, 4′-(m-hydroxybenzenesulfonylamino)-2,3-dihydroxychalcone], the IC50 in experiment [1] was determined as 12 µg/mL (≈ 29.2 µM); in experiment [2] it was 10 µg/mL (≈ 24.3 µM); in the experiment on A-549 (lung carcinoma) it was 10 µg/mL (≈ 24.3 µM).
In the case of `O=C(/C=C/c1cccc(O)c1O)c1cccc(NS(=O)(=O)c2cccc(O)c2)c1` [Compound 65, 3′-(m-hydroxybenzenesulfonylamino)-2,3-dihydroxychalcone], the IC50 came out at 9 µg/mL (≈ 21.9 µM) in experiment [1], 13 µg/mL (≈ 31.6 µM) in experiment [2] and 4 µg/mL (≈ 9.72 µM) in the experiment on A-549 (lung carcinoma).
For the compound `O=C(/C=C/c1cc(O)ccc1O)c1cccc(NS(=O)(=O)c2ccc(O)cc2)c1` [Compound 55, 3′-(p-hydroxybenzenesulfonylamino)-2,5-dihydroxychalcone], the IC50 came to 6 µg/mL (≈ 14.6 µM) in experiment [1], 12 µg/mL (≈ 29.2 µM) in experiment [2] and 7 µg/mL (≈ 17 µM) with A-549 (lung carcinoma).
`O=C(/C=C/c1cccc(O)c1)c1ccc(NS(=O)(=O)c2ccc(O)cc2)cc1` [Compound 7, 4′-(p-hydroxybenzenesulfonylamino)-3-hydroxychalcone]: the IC50 in experiment [1] is 33 µg/mL (≈ 83.5 µM); in experiment [2], 37 µg/mL (≈ 93.6 µM); with A-549 (lung carcinoma) it was 30 µg/mL (≈ 75.9 µM).
Taken in the same sequence, the figures for `O=C(/C=C/c1ccc(O)cc1)c1ccc(NS(=O)(=O)c2ccccc2[N+](=O)[O-])cc1` [Compound 29, 4′-(o-nitrobenzensulfonylamino)-4-hydroxychalcone] were 29 µg/mL (≈ 68.3 µM), 21 µg/mL (≈ 49.5 µM) and 37 µg/mL (≈ 87.2 µM).
The corresponding values for `O=C(/C=C/c1cccc(O)c1)c1ccc(OS(=O)(=O)c2cccc(O)c2)cc1` [Compound 88, 4′-(m-hydroxybenzenesulfonate)-3-hydroxychalcone] are 21 µg/mL (≈ 53 µM), 28 µg/mL (≈ 70.6 µM) and 32 µg/mL (≈ 80.7 µM).
Regarding `O=C(/C=C/c1ccccc1O)c1cccc(NS(=O)(=O)c2ccc(O)cc2)c1` [Compound 11, 3′-(p-hydroxybenzenesulfonylamino)-2-hydroxychalcone], the IC50 worked out at 39 µg/mL (≈ 98.6 µM) in experiment [1], 41 µg/mL (≈ 104 µM) in experiment [2] and 38 µg/mL (≈ 96.1 µM) in the experiment on A-549 (lung carcinoma).
Turning to `Cc1ccc(S(=O)(=O)Nc2ccccc2C(=O)/C=C/c2ccc(O)c(O)c2)cc1` [Compound 47, 2′-(p-toluenesulfonylamino)-3,4-dihydroxychalcone], the results for the IC50 (in experiment [1]; in experiment [2]; in the experiment on A-549 (lung carcinoma)) were 8 µg/mL (≈ 19.5 µM), 17 µg/mL (≈ 41.5 µM) and 11 µg/mL (≈ 26.9 µM), respectively.
The corresponding values for `Cc1ccc(S(=O)(=O)Nc2ccc(C(=O)/C=C/c3cccc(O)c3O)cc2)cc1` [Compound 43, 4′-(p-toluenesulfonylamino)-2,3-dihydroxychalcone] are 12 µg/mL (≈ 29.3 µM), 14 µg/mL (≈ 34.2 µM) and 18 µg/mL (≈ 44 µM).
Taken in the same sequence, the figures for `O=C(/C=C/c1ccc(O)c(O)c1)c1ccc(NS(=O)(=O)c2ccc(O)cc2)cc1` [Compound 48, 4′-(p-hydroxybenzenesulfonylamino)-3,4-dihydroxychalcone] were 7 µg/mL (≈ 17 µM), 11 µg/mL (≈ 26.7 µM) and 8 µg/mL (≈ 19.4 µM).
As for `O=C(/C=C/c1cccc(O)c1)c1ccc(OS(=O)(=O)c2ccc(O)cc2)cc1` [Compound 85, 4′-(p-hydroxybenzenesulfonate)-3-hydroxychalcone], the values for the IC50 (in experiment [1]; in experiment [2]; with A-549 (lung carcinoma)) were 29 µg/mL (≈ 73.2 µM), 28 µg/mL (≈ 70.6 µM) and 33 µg/mL (≈ 83.2 µM), respectively.
Taken in the same sequence, the figures for `O=C(/C=C/c1ccc(O)cc1)c1ccc(NS(=O)(=O)c2ccc(F)cc2)cc1` [Compound 24, 4′-(p-fluorobenzensulfonylamino)-4-hydroxychalcone] were 55 µg/mL (≈ 138 µM), 51 µg/mL (≈ 128 µM) and 50 µg/mL (≈ 126 µM).
As for `O=C(/C=C/c1ccc(O)cc1)c1ccccc1NS(=O)(=O)c1ccc(O)cc1` [Compound 12, 2′-(p-hydroxybenzenesulfonylamino)-4-hydroxychalcone], the IC50 stood at 37 µg/mL (≈ 93.6 µM) in experiment [1], 37 µg/mL (≈ 93.6 µM) in experiment [2] and 35 µg/mL (≈ 88.5 µM) in the experiment with A-549 (lung carcinoma).
Take `Cc1ccc(S(=O)(=O)Nc2ccc(C(=O)/C=C/c3ccc(O)c(O)c3)cc2)cc1` [Compound 42, 4′-(p-toluenesulfonylamino)-3,4-dihydroxychalcone]: the IC50 in experiment [1] worked out at 7 µg/mL (≈ 17.1 µM); in experiment [2], 18 µg/mL (≈ 44 µM); in the experiment on A-549 (lung carcinoma), 10 µg/mL (≈ 24.4 µM).
Taken in the same sequence, the figures for `O=C(/C=C/c1cc(O)ccc1O)c1ccccc1NS(=O)(=O)c1cccc(O)c1` [Compound 71, 2′-(m-hydroxybenzenesulfonylamino)-2,5-dihydroxychalcone] were 12 µg/mL (≈ 29.2 µM), 24 µg/mL (≈ 58.3 µM) and 7 µg/mL (≈ 17 µM).
Taken in the same sequence, the figures for `O=C(/C=C/c1cccc(O)c1O)c1ccc(NS(=O)(=O)c2ccc(O)cc2)cc1` [Compound 49, 4′-(p-hydroxybenzenesulfonylamino)-2,3-dihydroxychalcone] were 8 µg/mL (≈ 19.4 µM), 14 µg/mL (≈ 34 µM) and 6 µg/mL (≈ 14.6 µM).
The corresponding values for `CS(=O)(=O)Nc1ccc(C(=O)/C=C/c2ccc(O)c(O)c2)cc1` [Compound 82, 4′-(methanesulfonylamino)-3,4-dihydroxychalcone] are 12 µg/mL (≈ 36 µM), 22 µg/mL (≈ 66 µM) and 17 µg/mL (≈ 51 µM).
Turning to `O=C(/C=C/c1ccccc1O)c1ccc(OS(=O)(=O)c2cccc(O)c2)cc1` [Compound 89, 4′-(m-hydroxybenzenesulfonate)-2-hydroxychalcone], the IC50 in experiment [1] stood at 24 µg/mL (≈ 60.5 µM); in experiment [2], 33 µg/mL (≈ 83.2 µM); in the experiment on A-549 (lung carcinoma), 37 µg/mL (≈ 93.3 µM).
For the compound `O=C(/C=C/c1ccc(O)c(O)c1)c1ccc(NS(=O)(=O)c2ccccc2)cc1` [Compound 81, 4′-(benzensulfonylamino)-3,4-dihydroxychalcone], the IC50 in experiment [1] was found to be 14 µg/mL (≈ 35.4 µM); in experiment [2], 24 µg/mL (≈ 60.7 µM); in the experiment with A-549 (lung carcinoma), 28 µg/mL (≈ 70.8 µM).

(Values after patent publication US9072698B2, “Method for screening anti-cancer compounds inhibiting function of TM4SF5 and anti-cancer composition containing chalcone compounds” (Seoul National University Industry Foundation, priority 2006, dated 2015).)
